Measured values from PubChem BioAssay (NCI).
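Each compound was tested at five concentrations against cells in 96-well plates for 48 hours. TGI denotes the concentration required for complete inhibition of growth.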

Assays:
Experiment in all cases: NCI-60 cell line screen, 48 h
[1] = test system: PC-3 prostate
[2] = test system: K-562 leukemia
[3] = test system: MDA-MB-231 breast
[4] = test system: SK-MEL-28 melanoma
[5] = test system: SNB-75 CNS
[6] = test system: NCI-H226 lung
[7] = test system: A549 NSCLC
[8] = test system: MDA-MB-435
[9] = test system: OVCAR-4 ovarian
[10] = test system: UACC-62 melanoma
[11] = test system: NCI-H460 lung
[12] = test system: T-47D breast
[13] = test system: COLO 205 colon
[14] = test system: HCC-2998 colon
[15] = test system: U251 CNS
[16] = test system: EKVX NSCLC
[17] = test system: SW-620 colon
[18] = test system: NCI/ADR-RES ovarian
[19] = test system: SF-268 CNS
[20] = test system: KM12 colon
[21] = test system: A498 renal
[22] = test system: OVCAR-3 ovarian
[23] = test system: RPMI-8226 leukemia
[24] = test system: HOP-62 NSCLC
[25] = test system: MCF7 breast
[26] = test system: CAKI-1 renal
[27] = test system: MOLT-4 leukemia
[28] = test system: SN12C renal
[29] = test system: NCI-H522 lung
[30] = test system: SNB-19 CNS
[31] = test system: NCI-H23 lung
[32] = test system: SK-OV-3 ovarian
[33] = test system: SF-539 CNS
[34] = test system: 786-0 renal
[35] = test system: OVCAR-8 ovarian
[36] = test system: MDA-N
[37] = test system: IGROV1 ovarian
[38] = test system: UACC-257 melanoma
[39] = test system: MALME-3M melanoma
[40] = test system: TK-10 renal
[41] = test system: SF-295 CNS
[42] = test system: ACHN renal
[43] = test system: HCT-116 colon
[44] = test system: HT29 colon
[45] = test system: HOP-92 NSCLC
[46] = test system: M14 melanoma
[47] = test system: OVCAR-5 ovarian
[48] = test system: DU-145 prostate
[49] = test system: SR leukemia
[50] = test system: SK-MEL-5 melanoma
[51] = test system: UO-31 renal
[52] = test system: RXF 393 renal
[53] = test system: HCT-15 colon
[54] = test system: BT-549 breast
[55] = test system: SK-MEL-2 melanoma
[56] = test system: LOX IMVI melanoma
[57] = test system: HS 578T breast
[58] = test system: HL-60(TB) leukemia
[59] = test system: CCRF-CEM leukemia

Measured: TGI

Nc1cc(S(N)(=O)=O)ccc1SSc1ccc(S(N)(=O)=O)cc1N
> 100 µM: [1] | [2] | [3] | [4] | [5] | [6] | [7] | [8] | [9] | [10] | [11] | [12] | [13] | [14] | [15] | [16] | [17] | [18] | [19] | [20] | [21] | [22] | [23] | [24] | [25] | [26] | [27] | [28] | [29] | [30] | [31] | [32] | [33] | [34] | [35] | [36] | [37] | [38] | [39] | [40] | [41] | [42] | [43] | [44] | [45] | [46] | [47] | [48] | [49] | [50] | [51] | [52] | [53] | [54] | [55] | [56] | [57] | [58]

CCOC(=O)CCC(NC(=O)Cc1ccc(Oc2nc3ccccc3nc2-c2ccccc2)cc1)C(=O)OCC (stereo not drawn)
> 100 µM: [1] | [2] | [3] | [4] | [5] | [7] | [8] | [9] | [10] | [11] | [13] | [14] | [15] | [16] | [17] | [18] | [19] | [20] | [21] | [22] | [23] | [24] | [25] | [26] | [27] | [28] | [59] | [29] | [30] | [31] | [32] | [33] | [34] | [36] | [38] | [39] | [40] | [41] | [42] | [43] | [44] | [46] | [47] | [48] | [49] | [50] | [51] | [52] | [53] | [54] | [55] | [57] | [58]
78.9 µM: [6]
99.7 µM: [12]
